According to patent publication US20040105907A1, “Anti-inflammatory effects of the partially purified extract of radix stephaniae tetrandrae” (priority 2002, published 2004):

Columns and labels:
Format in all cases: cell-based
neutrophils = assay: Cell viability / cytotoxicity by propidium iodide exclusion assay; settings: 10 μg/ml, drug alone, 1 h incubation
Procedure: FIG. 17. Effects of Fan, Tet or SPRST on cell viability. Cell viability was measured by a propidium iodide exclusion assay. After incubation of cells (2×10^6/ml) with SPRST or test drugs for 1 h, cell suspension was further incubated with propidium iodide (10 μg/ml) and fluorescein diacetate (100 ng/ml) at room temperature for 10 min. Cell suspension was analyzed immediately on a flow cytometer (FACSCalibur™; Becton Dickinson) by recording forward and light scatter, red (>630 nm) and green (520 nm) fluorescence. […] Cell viability (%) was calculated by the CellQuest® software (Becton Dickinson) on a Power Macintosh 7300/200 computer. […]
Estimation of cell viability. Cell viability was determined according to Ormerod's method (Ormerod, M. G., 2000. Further applications to cell biology. In: Ormerod, M. G (Ed.), Flow cytometry, Third edition. Oxford University Press, UK, pp. 249-250) after incubation of, cells (2×10^6/ml) with test drugs for 1 h in 5-ml polystyrene round-bottomed tube (FALCON, Becton Dicson). […] After incubation with test drugs, cells suspension were further incubated with propidium iodide and fluorescein diacetate at room temperature for 10 min and analyzed immediately on a flow cytometer (FACSCalibur™; Becton Dickinson) by recording forward and light scatter, red (>630 nm) and green (520 nm) fluorescence. […]

human neutrophils [1] = assay: fMLP- or LTB4-induced intracellular calcium concentration ([Ca2+]i), fura-2; settings: 500 ng/ml pretreatment, 2 hrs
Procedure: Neutrophils (2×10^6/ml) were preloaded with fura 2-AM (5 μM) at 37° C. for 45 min and washed twice with HBSS (calcium free). […] For G-protein study, sample was pretreated with 500 ng/ml of pertussis toxin (PTX) at 37° C. for 2 hrs. Samples were gentle mixed with a micromagnetic stirrer at 37° C. for 5 min before addition of 1 μM of fMLP. [Ca^2+]i was measured on a spectrofluorometer as described in Materials and Methods. Net increase in [Ca^2+]i was calculated by subtracting control values from respective experimental values (control [Ca^2+]i in resting cell was 108±16 nM).
Neutrophils (2×10^6/ml) were preloaded with fura 2-AM (5 μM) at 37° C. for 45 min and washed twice with HBSS (calcium free). […] For G-protein study, sample was pretreated with 500 ng/ml of pertussis toxin (PTX) at 37° C. for 2 hrs. […] [Ca^2+]i was measured on a spectrofluorometer as described in Materials and Methods. Net increase in [Ca^2+]i was calculated by subtracting control values from respective experimental values (control [Ca^2+]i in resting cell was 108±16 nM). […]
Where: K=224 nM (Fura-2 at 37° C.), Rmin=ratio value in minimal Ca^2+ conditions, Rmax=ratio value at a maximal Ca^2+ concentration, Sf380=380 nm reading in minimal Ca^2+ conditions (corrected for background), Sb380 =380 nm reading in maximal Ca^2+ conditions (corrected for background). […]

human neutrophils [2] = assay: AlF4−-induced (direct G protein activation) [Ca2+]i increment; settings: 500 ng/ml pretreatment, 2 hrs
Procedure: Effects of SPRST, Tet, or Fan on AlF4^−-induced changes in intracellular calcium concentration ([Ca^2+]i). Fura 2-AM or BCECF-AM labeled-neutrophils were pretreated with 5-10 μg/ml of SPRST or other chemicals at 37° C. for 10 min. For G-protein study, sample was pretreated with 500 ng/ml of pertussis toxin (PTX) at 37° C. for 2 hrs before the addition of AlF4^− (10 mM NaF plus 10 μM AlCl3), a direct G-protein activator. AlF4^−-induced changes in [Ca^2+]i were measured as described in Materials and Methods. […] Values are mean±S.E.M. (n=5). *P<0.05, as compared to samples receiving AlF4^− alone for [Ca^2+]i and neutrophil adhesion, respectively. […]
Where: K=224 nM (Fura-2 at 37° C.), Rmin=ratio value in minimal Ca^2+ conditions, Rmax=ratio value at a maximal Ca^2+ concentration, Sf380=380 nm reading in minimal Ca^2+ conditions (corrected for background), Sb380 =380 nm reading in maximal Ca^2+ conditions (corrected for background). Rmax and Sb380 were obtained at the end of a measurement by permeabilizing the cells with 0.2% digitonin, where Rmin and Sf380 were determined by adding 20 mM EGTA after digitonin lysis.

human neutrophils [3] = assay: AlF4−-induced neutrophil firm adhesion; settings: 500 ng/ml pretreatment, 2 hrs
Procedure: Effects of SPRST, Tet, or Fan on AlF4^−-induced changes in neutrophil adhesion. Fura 2-AM or BCECF-AM labeled-neutrophils were pretreated with 5-10 μg/ml of SPRST or other chemicals at 37° C. for 10 min. For G-protein study, sample was pretreated with 500 ng/ml of pertussis toxin (PTX) at 37° C. for 2 hrs before the addition of AlF4^− (10 mM NaF plus 10 μM AlCl3), a direct G-protein activator. AlF4^−-induced neutrophil adhesion were measured as described in Materials and Methods.
Measurement of Neutrophil Firm Adhesion. Adhesion of neutrophils to extracellular matrix was determined in 24-well tissue culture plates (FALCON®, NJ, USA) coated with fibrinogen as our previous study (Shen et al., 1999). Prior to the addition of neutrophils, the plates were incubated with 250 μl per well of human fibrinogen (50 pg/ml in PBS; Chemicon International, Inc., CA) for 2 hrs at 37° C. The wells were washed once with HBSS, blocked with 1% BSA (Sigma, USA) in HBSS for 1 hr at 37° C., and washed twice with HBSS containing 0.1% Tween-20 (Sigma, USA) and once with HBSS. […] Adherent neutrophils were then determined by measuring the fluorescence with a fluorescent plate reader (Cytofluor 2300, Millipore®) with excitation at 485 nm and emission at 530 nm. Data are expressed as fluorescence intensity.

Row | Compound | cytotoxic effect (dead cells) (neutrophils) [%] | inhibition of fMLP- or LTB4-triggered rapid increase in [Ca2+]i (human neutrophils [1]) | AlF4−-induced [Ca2+]i increment (human neutrophils [2]) | AlF4−-induced neutrophil firm adhesion (human neutrophils [3])
1 | COc1ccc2cc1Oc1ccc(cc1)C[C@H]1c3cc(c(OC)cc3CCN1C)Oc1c(OC)c(OC)cc3c1[C@H](C2)N(C)CC3 [Tet, tetrandrine] | 1.24±0.17 | – | – | –
2 | pertussis toxin [PTX] | – | abolished | significantly inhibited | significantly inhibited
3 | COc1ccc2cc1Oc1ccc(cc1)C[C@H]1c3cc(c(OC)cc3CCN1C)Oc1c(O)c(OC)cc3c1[C@H](C2)N(C)CC3 [Fan, fangchinoline] | 0.84±0.11 | – | – | –
